ChEMBL document CHEMBL2073923, “Reversal of anticancer drug resistance by macrolide antibiotics in vitro and in vivo” (Clin Exp Pharmacol Physiol, 2000)

Columns and labels:
Format in all cases: functional, cell-based
[1] = target: T1, ATP-dependent translocase ABCB1 (Mus musculus, UniProt P21447); test: TP_TRANSPORTER: inhibition of Vinblastine efflux (Vinblastine: 0.002 uM, YM17K: 100 uM) in P388/S and P388/ADR cells
[2] = target: T1, ATP-dependent translocase ABCB1; test: TP_TRANSPORTER: inhibition of Cyclosporin A efflux (CsA: 0.005 uM, YM17K: 100 uM) in P388/S and P388/ADR cells
[3] = target: T1, ATP-dependent translocase ABCB1; test: TP_TRANSPORTER: inhibition of Cyclosporin A efflux (CsA: 0.005 uM, Clarithromycin: 100 uM) in P388/S and P388/ADR cells
[4] = target: T1, ATP-dependent translocase ABCB1; test: TP_TRANSPORTER: inhibition of Vinblastine efflux (Vinblastine: 0.002 uM, Clarithromycin: 100 uM) in P388/S and P388/ADR cells
[5] = target: T1, ATP-dependent translocase ABCB1; test: TP_TRANSPORTER: inhibition of Vinblastine efflux (Vinblastine: 0.002 uM, Josamycin: 100 uM) in P388/S and P388/ADR cells
[6] = target: T1, ATP-dependent translocase ABCB1; test: TP_TRANSPORTER: inhibition of Cyclosporin A efflux (CsA: 0.005 uM, Josamycin: 100 uM) in P388/S and P388/ADR cells
[7] = target: T1, ATP-dependent translocase ABCB1; test: TP_TRANSPORTER: inhibition of Vinblastine efflux (Vinblastine: 0.002 uM, FK-506: 10 uM) in P388/S and P388/ADR cells
[8] = target: T1, ATP-dependent translocase ABCB1; test: TP_TRANSPORTER: intracellular accumulation in P388/S and P388/ADR cells

T1 sequence (P21447 whole entry): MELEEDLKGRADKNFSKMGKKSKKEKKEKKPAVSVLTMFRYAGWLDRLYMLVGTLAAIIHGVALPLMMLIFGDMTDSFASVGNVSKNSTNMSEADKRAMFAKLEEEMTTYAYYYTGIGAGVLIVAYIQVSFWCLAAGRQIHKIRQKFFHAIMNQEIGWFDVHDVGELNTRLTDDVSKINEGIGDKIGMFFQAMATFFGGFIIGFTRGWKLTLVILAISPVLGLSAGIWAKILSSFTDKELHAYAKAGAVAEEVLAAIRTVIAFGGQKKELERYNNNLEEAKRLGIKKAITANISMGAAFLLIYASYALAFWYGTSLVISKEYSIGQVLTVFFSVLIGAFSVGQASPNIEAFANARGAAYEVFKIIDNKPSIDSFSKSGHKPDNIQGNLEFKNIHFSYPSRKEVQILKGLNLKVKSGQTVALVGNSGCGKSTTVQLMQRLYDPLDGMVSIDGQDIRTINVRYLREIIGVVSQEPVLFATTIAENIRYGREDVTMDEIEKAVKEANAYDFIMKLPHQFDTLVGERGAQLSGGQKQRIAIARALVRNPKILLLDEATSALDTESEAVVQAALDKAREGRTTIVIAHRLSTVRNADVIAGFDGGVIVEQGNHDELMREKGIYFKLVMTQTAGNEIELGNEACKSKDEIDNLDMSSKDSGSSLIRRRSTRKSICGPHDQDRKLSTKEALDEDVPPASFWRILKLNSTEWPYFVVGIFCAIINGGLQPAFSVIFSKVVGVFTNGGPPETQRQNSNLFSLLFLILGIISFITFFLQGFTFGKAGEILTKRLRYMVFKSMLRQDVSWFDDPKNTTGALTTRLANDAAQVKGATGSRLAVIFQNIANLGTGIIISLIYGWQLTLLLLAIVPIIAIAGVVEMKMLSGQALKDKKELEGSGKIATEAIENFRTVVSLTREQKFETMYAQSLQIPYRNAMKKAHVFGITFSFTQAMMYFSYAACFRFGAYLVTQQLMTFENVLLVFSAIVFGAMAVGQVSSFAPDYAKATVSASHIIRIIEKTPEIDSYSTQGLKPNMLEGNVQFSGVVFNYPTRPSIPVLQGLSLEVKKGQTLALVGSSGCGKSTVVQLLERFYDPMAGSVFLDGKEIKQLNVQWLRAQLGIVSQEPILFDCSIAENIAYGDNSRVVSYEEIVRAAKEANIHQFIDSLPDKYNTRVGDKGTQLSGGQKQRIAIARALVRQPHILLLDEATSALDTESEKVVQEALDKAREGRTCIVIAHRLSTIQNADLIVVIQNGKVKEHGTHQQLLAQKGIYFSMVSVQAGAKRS

With CC[C@H]1OC(=O)CC[C@H](C)C(O[C@@H]2O[C@H](C)C[C@H](N(C)C)[C@H]2O)[C@@H](CC=O)C[C@@H](C)C(=O)/C=C/C(C)=C/[C@@H]1CO (stereo partly drawn) the Activity [1] was “inhibitor [(at a rough estimate) 200 % of control]” and the Activity [2] was “inhibitor [(at a rough estimate) 710 % of control]”.
For CC[C@H]1OC(=O)[C@H](C)[C@@H](O[C@H]2C[C@@](C)(OC)[C@@H](O)[C@H](C)O2)[C@H](C)[C@@H](O[C@@H]2O[C@H](C)C[C@H](N(C)C)[C@H]2O)[C@](C)(OC)C[C@@H](C)C(=O)[C@H](C)[C@@H](O)[C@]1(C)O [CLARITHROMYCIN], the Activity [3] was “inhibitor [(at a rough estimate) 820 % of control]” and the Activity [4] was “inhibitor [(at a rough estimate) 250 % of control]”.
With CO[C@@H]1[C@@H](O[C@@H]2O[C@H](C)[C@@H](O[C@H]3C[C@@](C)(O)[C@@H](OC(=O)CC(C)C)[C@H](C)O3)[C@H](N(C)C)[C@H]2O)[C@@H](CC=O)C[C@@H](C)[C@@H](O)/C=C/C=C/C[C@@H](C)OC(=O)C[C@H]1OC(C)=O [JOSAMYCIN] the Activity [5] was “inhibitor [(at a rough estimate) 180 % of control]” and the Activity [6] was “inhibitor [(at a rough estimate) 710 % of control]”.
For C=CC[C@@H]1/C=C(\C)C[C@H](C)C[C@H](OC)[C@H]2O[C@@](O)(C(=O)C(=O)N3CCCC[C@H]3C(=O)O[C@H](/C(C)=C/[C@@H]3CC[C@@H](O)[C@H](OC)C3)[C@H](C)[C@@H](O)CC1=O)[C@H](C)C[C@@H]2OC [TACROLIMUS ANHYDROUS], the Activity [7] was “inhibitor [(at a rough estimate) 230 % of control]”.
In the case of CC[C@]1(O)C[C@@H]2CN(CCc3c([nH]c4ccccc34)[C@@](C(=O)OC)(c3cc4c(cc3OC)N(C)[C@H]3[C@@](O)(C(=O)OC)[C@H](OC(C)=O)[C@]5(CC)C=CCN6CC[C@]43[C@@H]65)C2)C1 [VINBLASTINE], the Activity [8] is reported as “substrate [+]”.
